Legend:
[1] = target: T1, Adenosine deaminase (Bos taurus, UniProt P56658); assay: Fluorescence spectroscopy of ADA 3-D structure changes; parameters: species or system bovine; settings: excitation 290 nm, pH 7.5, 37°C; inhibitor 10 μM
T1 construct: Adenosine deaminase (from bovine spleen in 3.2 M ammonium sulfate) was purchased from Sigma; purchased Sigma (St. Louis, MO, USA); host or cells: bovine spleen (tissue-derived)
T1 sequence (P56658 1-363): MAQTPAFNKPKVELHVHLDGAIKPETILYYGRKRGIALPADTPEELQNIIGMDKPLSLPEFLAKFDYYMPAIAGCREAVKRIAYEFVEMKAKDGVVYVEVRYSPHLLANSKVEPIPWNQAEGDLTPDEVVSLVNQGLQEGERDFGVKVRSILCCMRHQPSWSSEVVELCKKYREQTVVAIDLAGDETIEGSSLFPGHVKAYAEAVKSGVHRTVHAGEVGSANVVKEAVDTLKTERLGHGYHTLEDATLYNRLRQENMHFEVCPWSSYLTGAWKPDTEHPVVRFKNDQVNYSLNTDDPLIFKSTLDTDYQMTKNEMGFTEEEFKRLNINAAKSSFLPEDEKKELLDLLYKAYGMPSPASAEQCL
Method: Fluorescence study has been done with fluorescent spectroscopy (Hitachi MPF-4, Japan), which its cell length is 1cm. In this method, the exciting wavelength was adjusted in 290 nm and the emission was studied in range of 300–400 nm for possible enzyme 3-D structure changes. In this experiment, different concentrations of inhibitors (5–100 μM) were investigated in the presence of ADA (0.01unit) by final volume of 400 μL with phosphate buffer.
To investigate changes in enzyme 3-D structure at different concentration of inhibitors (10–100 μM), the fluorescence experiments were done in excitation wavelength of 290 nm, which is due to tryptophan amino acids in the active site of enzyme Figure 5.
Figure 5 The fluorescence spectra of adenosine deaminase at pH=7.5 and T=37°C in the presence of different concentrations of three inhibitors: 10–100 μM.

[2] = target: T2, Adenosine deaminase (from bovine spleen) (Bos taurus, UniProt P56658); assay: ADA enzyme inhibition by UV-vis spectrophotometry (Kaplan method, absorbance at 265 nm); format: biochemical; settings: for IC50: pH 7.5, 37°C, phosphate buffer; for Ki: secondary plot of apparent Km versus [I], inhibitor 0–130 μM, substrate 20–124 μM, 37°C, pH 7.5, read-out: Ki (inhibition constant)
T2 construct: Adenosine deaminase (from bovine spleen in 3.2 M ammonium sulfate) was purchased from Sigma; purchased Sigma (St. Louis, MO, USA); host or cells: bovine spleen (tissue-derived)
T2 sequence (P56658 1-363): T1 sequence (P56658 1-363)
Method: Adenosine deaminase (from bovine spleen in 3.2 M ammonium sulfate) was purchased from Sigma (St. Louis, MO, USA). Phosphate buffer 50 mM, pH 7.5, was used as media which is comprised NaH2PO4 and Na2HPO4 and are from Merck. In addition, other material such as solvents, were purchased from this company.
All of biological samples were prepared with double distilled water. The adenosine stock solution prepared and was used in concentration range of 0.01-0.4 mM. The concentration of enzyme in the assay mixture 50 mM sodium phosphate buffer, was 0.9 nM with a final volume of 1ml. Enzymatic activities were assayed by UV–vis spectrophotometry (Shimadzu-3100, Japan) based on Kaplan Method to follow the decrease in absorbance at 265 nm resulting from the conversion of adenosine to inosine.
For accurate determination of kinetic parameters, the IC50 values were evaluated, and then the enzyme inhibition was studied in 180 s intervals. […] In a competitive inhibition; Vmax is unaltered, whereas Km is increased. The slope of a competitive plot is equal to:
Slope=KmI/Vmax.Ki+Km/Vmax
All experiments performed in 37°C and phosphate buffer, pH=7.5.

[3] = target: adenosine deaminase; settings: cited from earlier work

enzyme structural changes by fluorescence intensity [1] | inhibition mechanism ([2]; kinetic studies) | IC50 [2] [µM] | Ki [2] [µM] | Molecule | Ki [3] [µM]
sever structural changes | competitive | 41 | 20 | Cn1c([N+](=O)[O-])cnc1C#N [Compound 2] | –
– | – | 103 | 63 | Cn1c([N+](=O)[O-])cnc1-c1nnco1 [Compound 1] | –
– | – | – | – | erythro-9-(2-hydroxy-3-nonyl) adenine [EHNA] | 0.037

Source: article PMC3556010, “A new strategy based on pharmacophore-based virtual screening in adenosine deaminase inhibitors detection and in-vitro study” (DARU Journal of Pharmaceutical Sciences, 2012)
